This note sets out measurements from BindingDB's records for doi:10.1021/acs.jmedchem.1c00926 (Biogen, 2022).

As a reminder, the IC50 is the concentration that gives 50% inhibition. A high value points to lower potency.

The assay in a line: Inhibition of CD69 in human whole blood preincubated for 30 mins followed by anti-human IgD stimulation and measured after 18 to 22 hrs by flow cytometry. On the technique in general: Flow cytometry measures light scatter and fluorescence of single cells or particles in a stream.
`Cc1c(NC(=O)c2cc3c(s2)CCCC3)cccc1-c1cn(C)c(=O)c(Nc2ccc(C3CN(C)CC(=O)N3C)cc2)n1` (centres undefined) returned a 50% inhibitory concentration (IC50) of 1200 nM. The same measure for `CC(C)OC1CN(C(=O)N[C@@H]2CCCCc3cc(-c4ccnc(Nc5cnn(C)c5)n4)ccc32)C1`: 400 nM. The figure for `Cn1cc(Nc2nccc(-c3ccc4c(c3)CCCCC4NC(=O)N3CC[C@@H](C(C)(C)C)C3)n2)cn1` (some centres undefined) is 40 nM; for `Cn1cc(Nc2nccc(-c3ccc4c(c3)CCCCC4NC(=O)c3cnc(C(C)(C)C)nc3)n2)cn1` (centres undefined) it is greater than 10000 nM; for `Cn1cc(Nc2nccc(-c3ccc4c(c3)CCCC[C@H]4NC(=O)c3nc(C(C)(C)C)no3)n2)cn1` it is 59 nM. The same measure for `Cn1cc(Nc2nccc(-c3ccc4c(c3)CCCC[C@H]4NC(=O)c3cn(C(C)(C)C)nn3)n2)cn1`: 104 nM. The molecule `Cn1cc(Nc2nccc(-c3ccc4c(c3)CCNC[C@H]4NC(=O)c3cn(C(C)(C)C)nn3)n2)cn1` registered an IC50 of 400 nM.

Turning to `Cn1cc(Nc2nccc(-c3ccc4c(c3)CNCC[C@H]4NC(=O)c3cn(C(C)(C)C)nn3)n2)cn1`, it took 1600 nM to reach half-maximal inhibition (IC50). The figure for `CN1CCc2cc(-c3ccnc(Nc4cnn(C)c4)n3)ccc2[C@H](NC(=O)c2cn(C(C)(C)C)nn2)C1` is 700 nM; for `Cn1cc(Nc2nccc(-c3ccc4c(c3)CCCCC4NC(=O)c3cn(C(C)(C)C)nn3)n2)cn1` (centres undefined) [1-(tert-butyl)-N-(2-(2-((1-methyl-1H-pyrazol-4-yl)amino)pyrimidin-4-yl)-6,7,8,9-tetrahydro-5H-benzo[7]annulen-5-yl)-1H-1,2,3-triazole-4-carboxamide] it is 860 nM; for `Cn1cc(Nc2nccc(-c3ccc4c(c3)CCCCC4NC(=O)c3nc(C(C)(C)C)no3)n2)cn1` (centres undefined) [3-(tert-butyl)-N-(2-(2-((1-methyl-1H-pyrazol-4-yl)amino)pyrimidin-4-yl)-6,7,8,9-tetrahydro-5H-benzo[7]annulen-5-yl)-1,2,4-oxadiazole-5-carboxamide ] it is 220 nM.

`Cn1cc(Nc2nccc(-c3ccc4c(c3)CCCCC4NC(=O)c3nnc(C(C)(C)C)o3)n2)cn1` (centres undefined) [5-(tert-butyl)-N-(2-(2-((1-methyl-1H-pyrazol-4-yl)amino)pyrimidin-4-yl)-6,7,8,9-tetrahydro-5H-benzo[7]annulen-5-yl)-1,3,4-oxadiazole-2-carboxamide] showed an IC50 of 390 nM. This IC50 is about 1.8-fold higher than that of the molecule before.

The molecule `COCCN1CC[C@@H](NC(=O)c2cn(C(C)(C)C)nn2)c2ccc(-c3ccnc(Nc4cnn(C)c4)n3)cc2C1` [(R)-1-(tert-butyl)-N-(2-(2-methoxyethyl)-8-(2-((1-methyl-1H-pyrazol-4-yl)amino)pyrimidin-4-yl)-2,3,4,5-tetrahydro-1H-benzo[c]azepin-5-yl)-1H-1,2,3-triazole-4-carboxamide ] displayed a concentration for half-maximal inhibition (IC50) of 800 nM. The same measure for `Cn1cc(Nc2nccc(-c3ccc4c(c3)CCCC[C@H]4NC(=O)c3nnc(C(C)(C)C)o3)n2)cn1` [(R)-5-(tert-butyl)-N-(2-(2-((1-methyl-1H-pyrazol-4-yl)amino)pyrimidin-4-yl)-6,7,8,9-tetrahydro-5H-benzo[7]annulen-5-yl)-1,3,4-oxadiazole-2-carboxamide ]: 330 nM.
